Source: US10352936B2, “Use of tumor Fas expression to determine response to anti-cancer therapy” (ApopLogic Pharmaceuticals, Inc., priority 2011, dated 2019)

Test system: naturally occurring appendicular osteosarcoma
Experiment: Survival of dogs treated with neoadjuvant FasL plus standard of care versus carboplatin standard of care
Format: in vivo, dog
Details: whole treatment group
Protocol: Without being bound to theory, the principle of this treatment was based on a 10-day delay of therapy. The rationale for a 10-day delay approach was based on our preclinical data showing that there was statistically significant immunologic protection in animals immunized 10 days before challenge, as well as on the practicality of any delay of therapy approach. The experimental therapy was performed on Day 1, and dogs were followed to assess local and/or systemic toxicity for 10 days. At the end of the investigational period, dogs were treated using standard-of-care for OS.
The treatment sequence was as follows: On Day 0—history, physical, CBC, biochemical profile, urinalysis, chest radiographs, +/− bone scan. On Day 1, lesion biopsy and intratumoral injection. On Days 3, 7, and 10, toxicity monitoring with physical exam, CBC, biochemical profile, urinalysis, lameness evaluation and quality of life assessment. Day 10, amputation of affected limb.
Patient selection, treatment, and biological sample preparation were conducted as described in Example 1. Fifty seven dogs were enrolled in the study. Two dogs were diagnosed with intramedullary tumors that were not OS, two dogs were withdrawn from the study, two dogs had pre-existing metastasis, two were lost to follow up, and four died of other causes. The rest of the patients were followed until their death, which was then determined to be disease-related (“died of disease”) or unrelated to disease recurrence (“died of other causes”).
Table 1 depicts disease free interval (DFI), overall survival (OS), and percentage of dogs alive at 200 days following treatment and amputation that were treated with standard of care (carboplatin (carbo) control) and treated with FasL. Additionally, the disease free interval and overall survival of those dogs which had inflammation scores of 1 (low inflammation) as determined by histopathologic evaluation (see Example 1) or inflammation scores of 2-3 (moderate to high inflammation) is depicted. […]

For [NH2][Pt]1([NH2])[O]C(=O)C2(CCC2)C(=O)[O]1 [Carbo control, carboplatin], the “Disease Free Interval” value was 213, the “Overall Survival” value was 231 days and the “% Alive at 200 Days” value (200 days following treatment and amputation) was 56%.
